# According to PubChem BioAssay (NCI):
#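 Briefly, cells in 96-well plates were exposed to five compound concentrations for 48 h, and endpoints were estimated by linear interpolation. The concentration for full growth arrest is given as TGI.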
# Columns and labels:
# Assay in all cases: inhibition of tumour cell growth, NCI panel, 48 h
# [1] = tested on: U251 CNS
# [2] = tested on: CAKI-1 renal
# [3] = tested on: KM12 colon
# [4] = tested on: HOP-62 NSCLC
# [5] = tested on: COLO 205 colon
# [6] = tested on: ACHN renal
# [7] = tested on: SK-MEL-5 melanoma
# [8] = tested on: SK-OV-3 ovarian
# [9] = tested on: IGROV1 ovarian
# [10] = tested on: SNB-19 CNS
# [11] = tested on: SF-539 CNS
# [12] = tested on: MOLT-4 leukemia
# [13] = tested on: MALME-3M melanoma
# [14] = tested on: SNB-75 CNS
# [15] = tested on: MCF7 breast
# [16] = tested on: A549 NSCLC
# [17] = tested on: NCI-H522 lung
# [18] = tested on: NCI/ADR-RES ovarian
# [19] = tested on: OVCAR-8 ovarian
# [20] = tested on: SK-MEL-2 melanoma
structure (smiles),measurement,setting,value
COc1cc2cc(C(=O)N3CC(CCl)c4c3cc([N+](C)(C)Cc3ccc([N+](=O)[O-])n3C)c3ccccc43)[nH]c2c(OC)c1OC (stereo not given),TGI,[1],> 100 µM
same,TGI,[2],> 19.9 µM
same,TGI,[3],> 23.8 µM
same,TGI,[4],> 100 µM
same,TGI,[5],7.36 µM
same,TGI,[6],> 100 µM
same,TGI,[7],4.18 µM
same,TGI,[8],> 100 µM
same,TGI,[9],4.23 µM
same,TGI,[10],> 100 µM
same,TGI,[11],14.3 µM
same,TGI,[12],16 µM
same,TGI,[13],25.6 µM
same,TGI,[14],7.18 µM
same,TGI,[15],12.5 µM
same,TGI,[16],1.06 µM
same,TGI,[17],0.981 µM
same,TGI,[18],4.38 µM
same,TGI,[19],8.78 µM
same,TGI,[20],1.5 µM
